Assay in all cases: Post-emergence efficacy, glasshouse spray test
Assay type in all cases: in vivo

In one assay the test system is Eleusine indica (ELEIN). As to conditions: Eleusine indica, post-emergence, 312 h, evaluated after 13 days, read-out: Control of weed species after post-emergence application, ELEIN (100=total damage to plant; 0=no damage to plant); for pest or weed control at 500 g/ha: Application Rate 500 g/Ha. The procedure:
(§1) Seeds of a variety of test species were sown in standard soil in pots. After cultivation for 14 days (post-emergence) under controlled conditions in a glasshouse (at 24/16° C. day/night; 14 hours light; 65% humidity), the plants were sprayed with an aqueous spray solution derived from the dissolution of the technical active ingredient formula (I) in a small amount of acetone and a special solvent and emulsifier mixture referred to as IF50 (11.12% Emulsogen EL360 TM+44.44% N-methyl pyrrolidone+44.44% Dowanol DPM glycolether), to create a 50 g/l solution which was then diluted to required concentration using 0.25% or 1% Empicol ESC70 (Sodium lauryl ether sulphate)+1% ammonium sulphate as diluent. The test plants were then grown in a glasshouse under controlled conditions (at 24/16° C., day/night; 14 hours light; 65% humidity) and watered twice daily. After 13 days the test was evaluated (100=total damage to plant; 0=no damage to plant).
(§2) Ipomoea hederacea (IPOHE), Euphorbia heterophylla (EPHHL), Chenopodium album (CHEAL), Amaranthus palmeri (AMAPA), Lolium perenne (LOLPE), Digitaria sanguinalis (DIGSA), Eleusine indica (ELEIN), Echinochloa crus-galli (ECHCG), Setaia fabei (SETFA)

In the next assay the test system is Lolium perenne (LOLPE). To be noted: Lolium perenne, post-emergence, 312 h, evaluated after 13 days, read-out: Control of weed species after post-emergence application, LOLPE (100=total damage to plant; 0=no damage to plant); for pest or weed control at 500 g/ha: Application Rate 500 g/Ha. The procedure:
as §1, §2

In assay [1] the test system is Amaranthus palmeri (AMAPA). To be noted: Amaranthus palmeri, post-emergence, 312 h, evaluated after 13 days, read-out: Control of weed species after post-emergence application, AMAPA (100=total damage to plant; 0=no damage to plant); for pest or weed control at 500 g/ha: Application Rate 500 g/Ha. Here is the method:
as §1, §2

The test system of assay [2] is Ipomoea hederacea (IPOHE). To be noted: Ipomoea hederacea, post-emergence, 312 h, evaluated after 13 days, read-out: Control of weed species after post-emergence application, IPOHE (100=total damage to plant; 0=no damage to plant); for pest or weed control at 500 g/ha: Application Rate 500 g/Ha. Here is the method:
as §1, §2

Assay [3] deals with Chenopodium album (CHEAL). To be noted: Chenopodium album, post-emergence, 312 h, evaluated after 13 days, read-out: Control of weed species after post-emergence application, CHEAL (100=total damage to plant; 0=no damage to plant); for pest or weed control at 500 g/ha: Application Rate 500 g/Ha. Here is the method:
as §1, §2

Assay [4] concerns Digitaria sanguinalis (DIGSA). As to conditions: Digitaria sanguinalis, post-emergence, 312 h, evaluated after 13 days, read-out: Control of weed species after post-emergence application, DIGSA (100=total damage to plant; 0=no damage to plant); for pest or weed control at 500 g/ha: Application Rate 500 g/Ha. Here is the method: as §1, §2
The test system of another assay is Setaia fabei (SETFA). To be noted: Setaria faberi, post-emergence, 312 h, evaluated after 13 days, read-out: Control of weed species after post-emergence application, SETFA (100=total damage to plant; 0=no damage to plant); for pest or weed control at 500 g/ha: Application Rate 500 g/Ha. The procedure:
as §1, §2

The subject of assay [5] is Echinochloa crus-galli (ECHCG). As to conditions: Echinochloa crus-galli, post-emergence, 312 h, evaluated after 13 days, read-out: Control of weed species after post-emergence application, ECHCG (100=total damage to plant; 0=no damage to plant); for pest or weed control at 500 g/ha: Application Rate 500 g/Ha. Here is the method:
as §1, §2

As for `Cc1nsc(-c2cc[n+](CCS(=O)(=O)[O-])nc2)c1C` [Compound A54, 2-[4-(3,4-dimethylisothiazol-5-yl)pyridazin-1-ium-1-yl]ethanesulfonate], the pest or weed control at 500 g/ha in the assay with Eleusine indica (ELEIN) was 80%; in the assay with Lolium perenne (LOLPE) it was 60%; in assay [1], 80%; in assay [2], 10%; in assay [3] it was 50%; in assay [4], 90%. In addition, the pest or weed control at 500 g/ha (in the assay with Setaia fabei (SETFA); in assay [5]) was 70% in each case.

`Cc1coc(-c2cc[n+](CCC(=O)O)nc2)n1` [Compound A55]: the pest or weed control at 500 g/ha with Eleusine indica (ELEIN) came out at 100%; in the assay with Lolium perenne (LOLPE), 70%; in assay [1] it was 100%; in assay [2] it was 20%; in assay [3], 80%; in assay [4] it was 100%. The pest or weed control at 500 g/ha (in the assay with Setaia fabei (SETFA); in assay [5]) was 100% each time.

Consider `Cc1nsc(-c2cc[n+](CCC(=O)O)nc2)c1C` [Compound A58], for which the pest or weed control at 500 g/ha was 40% in the assay on Eleusine indica (ELEIN); 30% in the assay on Lolium perenne (LOLPE); 80% in assay [1]; 20% in assay [2]; 50% in assay [3]; 90% in assay [4]. In addition, the pest or weed control at 500 g/ha stood at 90% with Setaia fabei (SETFA) and 70% in assay [5].

As for `COC(=O)C[n+]1ccc(-c2ncco2)cn1` [Compound A66], the pest or weed control at 500 g/ha is 90% with Eleusine indica (ELEIN); 20% in the assay with Lolium perenne (LOLPE); 50% in assay [1]; 10% in assay [2]; 60% in assay [3]; 60% in assay [4]. For the same molecule, the pest or weed control at 500 g/ha (in the assay on Setaia fabei (SETFA); in assay [5]) was 70% throughout.

Regarding `COC(=O)CCC[n+]1ccc(-c2ncco2)cn1` [Compound A69], the pest or weed control at 500 g/ha in the assay with Eleusine indica (ELEIN) was found to be 90%; with Lolium perenne (LOLPE), 30%; in assay [1], 90%; in assay [2], 40%; in assay [3], 90%; in assay [4], 90%. In addition, the pest or weed control at 500 g/ha came to 90% with Setaia fabei (SETFA) and 80% in assay [5].

`OCCC[n+]1ccc(-c2ncco2)cn1` [Compound A70]: the pest or weed control at 500 g/ha in the assay with Eleusine indica (ELEIN) was 40%; with Lolium perenne (LOLPE) it was 20%; in assay [1] it was 40%; in assay [2] it was 30%; in assay [3], 40%; in assay [4], 80%. Also, the pest or weed control at 500 g/ha (in the assay on Setaia fabei (SETFA); in assay [5]) was 40% in each case.

For `CCOP(=O)(CC[n+]1ccc(-c2ncco2)cn1)OCC` [Compound A75], the pest or weed control at 125 g/ha in the assay on Eleusine indica (ELEIN) (Application Rate 125 g/Ha) amounted to 0%; in the assay on Lolium perenne (LOLPE) (Application Rate 125 g/Ha), 0%; in assay [1] (Application Rate 125 g/Ha), 0%; in assay [2] (Application Rate 125 g/Ha) it was 0%; in assay [3] (Application Rate 125 g/Ha), 40%; in assay [4] (Application Rate 125 g/Ha), 10%. Further, the pest or weed control at 125 g/ha (in the assay with Setaia fabei (SETFA) (Application Rate 125 g/Ha); in assay [5] (Application Rate 125 g/Ha)) was 0% throughout.

On to `O=P(O)(O)CC[n+]1ccc(-c2ncco2)cn1` [Compound A77], for which the pest or weed control at 500 g/ha came to 0% in the assay on Eleusine indica (ELEIN); 0% in the assay with Lolium perenne (LOLPE); 50% in assay [1]; 60% in assay [2]; 70% in assay [3]; 90% in assay [4]. For the same molecule, the pest or weed control at 500 g/ha with Setaia fabei (SETFA) amounted to 80%; in assay [5] it was 60%.

Take `O=P(O)(O)CCC[n+]1ccc(-c2ncco2)cn1` [Compound A78]: the pest or weed control at 500 g/ha with Eleusine indica (ELEIN) came out at 0%; with Lolium perenne (LOLPE), 10%; in assay [1] it was 70%; in assay [2], 50%; in assay [3], 80%; in assay [4] it was 60%. In addition, the pest or weed control at 500 g/ha in the assay on Setaia fabei (SETFA) stood at 50%; in assay [5], 20%.

For the molecule `O=S(=O)([O-])CC[n+]1ccc(-c2ccno2)cn1` [Compound A79], the pest or weed control at 500 g/ha was 100% with Eleusine indica (ELEIN); 70% in the assay with Lolium perenne (LOLPE); 100% in assay [1]; 80% in assay [2]; 90% in assay [3]; 90% in assay [4]. Further, the results for the pest or weed control at 500 g/ha (with Setaia fabei (SETFA); in assay [5]) were 90% and 80%, respectively.

Take `Cn1cc(-c2cc[n+](CCC(=O)O)nc2)nn1` [Compound A80]: the pest or weed control at 500 g/ha in the assay on Eleusine indica (ELEIN) came to 10%; in the assay on Lolium perenne (LOLPE), 0%; in assay [1], 40%; in assay [2], 10%; in assay [3] it was 10%; in assay [4] it was 60%. The results for the pest or weed control at 500 g/ha (in the assay with Setaia fabei (SETFA); in assay [5]) were 40% and 0%, respectively.

Consider `Cn1cc(-c2cc[n+](CCS(=O)(=O)[O-])nc2)nn1` [Compound A81], for which the pest or weed control at 500 g/ha in the assay on Eleusine indica (ELEIN) is 10%; with Lolium perenne (LOLPE), 10%; in assay [1], 50%; in assay [2], 10%; in assay [3], 40%; in assay [4], 70%. In addition, the pest or weed control at 500 g/ha in the assay with Setaia fabei (SETFA) amounted to 50%; in assay [5], 30%.

Turning to `O=C(O)c1ccccc1C[n+]1ccc(-c2ncco2)cn1` [Compound A91], the pest or weed control at 500 g/ha in the assay on Eleusine indica (ELEIN) was 40%; in the assay on Lolium perenne (LOLPE), 10%; in assay [1], 40%; in assay [2], 20%; in assay [3], 60%; in assay [4], 40%. Also, the pest or weed control at 500 g/ha (with Setaia fabei (SETFA); in assay [5]) was 20% each time.

Source of the values: patent US20210053957A1, “HERBICIDAL COMPOUNDS” (SYNGENTA PARTICIPATIONS AG, priority 2018, published 2021).
